In brackets after ≈: the same amount, converted by molar mass. Several values for one entry are separate records, joined by “and”; a condition that tells them apart may be missing. Equal values may be shown once. Read-outs that look alike come from different tables or passages of the source.
Columns and labels:
[1] = system: replicating Mtb-lux (Mycobacterium tuberculosis CDC1551 with pMV306hsp+LuxG13); assay type: cell-based
[2] = system: dormant Mtb-lux (Mycobacterium tuberculosis CDC1551 with pMV306hsp+LuxG13); assay type: cell-based; details: for R/D (MICR/MICD, Mtb-lux): ratio replicating MIC to dormant MIC
Cytotoxicity assay HepG2 = details: human
[3] = system: HepG2 (human liver carcinoma) cell line; test: Cytotoxicity assay HepG2
[4] = system: Mycobacterium tuberculosis H37Ra ATCC 25177; test: MIC against Mtb H37Ra, resazurin microtiter assay (REMA); assay type: cell-based; details: for MIC: Mycobacterium tuberculosis, 336 h
[5] = system: J774A.1 (murine macrophage-like) cell line; test: Cytotoxicity assay J774A.1; assay type: cell-based
Method: (§1) To evaluate the selectivity of the top six compounds from the Mtb-lux activity screen (Table 2), cytotoxicity for two different mammalian cell lines was determined. The IC50 was calculated for each compound against J774A.1 and HepG2 cell lines. The selectivity index (SI) for both replicating and dormant conditions was then calculated by taking the IC50 and dividing it by the corresponding MIC (SIR=IC50/MICR, SID=IC50/MICD)^40. Consistent with the experience, the J774 macrophage cell line was more sensitive to all compounds tested. […] Based on these observations, this triacetate protected puupehenone represents a promising candidate for further optimization.
(§2) Cytotoxicity assay: Cytotoxicity was assessed using J774A.1 (murine macrophage-like) and HepG2 (human liver carcinoma) cell lines using 2-fold dilution of the compounds as described previously^42, 43. IC50 values were determined using nonlinear regression fitting of the databy GraphPad Prism. The selectivity Index (SI) was calculated as IC50/MIC.

[6] = Cytotoxicity assay J774A.1; assay type: cell-based, murine; details: mouse, J774A.1 macrophage-like cells; J774A.1 cells; read-out: Cytotoxicity (IC50) J774
Method: as §1, §2

[7] = system: TcdA production in C. difficile NAP1; test: Toxin analysis: extracellular TcdA of C. difficile NAP1 at sub-MICs, western blot; assay type: cell-based, Clostridioides difficile; set-up: Concentration at which TcdA was undetectable: unit not given here
Method: After a 48 h incubation of NAP1 challenged with several dilutions of each compound, extracellular toxin in spent media derived from triplicate cultures was assessed with western blots using a monoclonal antibody against TcdA. Semi-quantitative analysis of toxin levels was performed via densitometry of TcdA band intensity with respect to total protein as measured by the Bradford assay. Semi-quantitative plots are shown below each representative blot. (a) Toxin production in BHIS (NAP1) and BHIS with 5% DMSO (vehicle). (b) Toxin production from cultures challenged with sub-MICs of fidaxomicin, (c) vancomycin, and (d-j) (+)-puupehenone and selected derivatives. Data points represent the means of adjusted toxin levels derived from triplicate cultures, while error bars represent standard deviations. Statistical analysis was performed in GraphPad Prism 8 using unpaired t-tests. *P<0.05; **P<0.01.
To account for changes in biomass, a semi-quantitative analysis of TcdA production was performed by normalizing the target bands from representative western blots to the amount of total protein in each sample.
Toxin analysis. Toxin production was determined by analyzing the amount of extracellular toxin in the cultures from the ASTs described above. At 48 h, total protein of each culture was determined with the Bradford assay using bovine serum albumin (BSA) as a standard.^53 Cultures were then centrifuged at 5,000×g for 5 minutes to clear the supernatants which were separately collected and frozen at −20° C. After thawing at room temperature, cell-free supernatants were mixed 1:1 with 2× Laemmli buffer and incubated in a sand bath at 100° C. for 5 minutes. Twenty microliters of denatured samples were loaded onto 7.5% Tris-glycine gels and electrophoresed at 200 V for 1 h. After electrophoresis, samples were transferred to polyvinylidene difluoride membranes at 4° C. overnight at 30 V. Membranes were incubated in a blocking buffer (20 mM Tris-HCl, 150 mM NaCl, 0.01 mM ethylenediaminetetraacetic acid, 0.1% Tween 20, 1% BSA, [pH 7.5]) for 1 h at room temperature. TcdA was detected with a monoclonal mouse anti-TcdA antibody (PCG4.1, Novus Biologicals) and a rabbit anti-mouse antibody conjugated with alkaline phosphatase. Blots were visualized with a ChemiDoc XRS+ imaging system (Bio-Rad).
Semi-quantitative analysis of TcdA was performed using Image Lab 6.0 software (Bio-Rad). Briefly, after subtracting background noise, peaks corresponding to the target band were selected with the software's Lane Profile tool. The density of each peak generated a value (arbitrary units) that was normalized to the total protein amount of each respective sample. […] These losses of activity prevented us from performing statistical analysis from multiple experiments, as the sub-MICs were not always the same. Since there were no changes to the methodology described, several other reasons could have accounted for decreased activity, such as compound stability, freeze-thaw, and adherence to plastic. Nevertheless, the toxin results were reproducible, irrespective of the exact sub-MICs on different days.

[8] = system: Clostridioides difficile NAP1; test: MIC against C. difficile NAP1, modified broth microdilution
[9] = determined visually by REMA assay, 14-day incubation, read-out: MIC Mtb H37Ra

Structure (SMILES)	MICR (Mtb-lux) [1] [µg/mL]	MICD (Mtb-lux) [2]	IC50 (Cytotoxicity assay HepG2) [µM]	SI (SID) HepG2 [3]	SI (SIR) HepG2 [3]	MIC [4, 9] [µg/mL]	SI (SID) J774 [5]	SI (SIR) J774 [5]	IC50 [6] [µM]	R/D (MICR/MICD, Mtb-lux) [2]	Concentration at which TcdA was undetectable ([7]; NAP1, 48 h, western blot)	MIC ([8]; Clostridioides difficile, NAP1, 48 h, read-out: MIC C. difficile, NAP1, modified broth microdilution, 48 h, anaerobic) [µg/mL]	MIC C. difficile ([8]; NAP1, modified broth microdilution, 48 h, anaerobic) [µg/mL]	MIC ([4]; read-out: MIC Mtb H37Ra, determined visually by REMA assay, 14-day incubation) [µg/mL]	MIC Mtb H37Ra ([4]; determined visually by REMA assay, 14-day incubation) [µg/mL]	MIC Mtb H37Ra [4] [µg/mL]	Effect on TcdA toxin production ([7]; NAP1 challenged with 0.5×, 0.25×, 0.125× MIC, 48 h, TcdA normalized to total protein)
CO[C@@H]1c2cc(OC(=O)c3ccccc3)c(OC(=O)c3ccccc3)cc2O[C@@]2(C)CC[C@H]3C(C)(C)CCC[C@]3(C)[C@@H]12 [Compound 18]	>200	48.3 µg/mL															
CC1(C)CCC[C@]2(C)[C@H]3C=C4C=C(O)C(=O)C=C4O[C@@]3(C)CC[C@@H]12 [Compound 1, (+)-Puupehenone]	3.0	0.5 µg/mL	70.6	141.2	23.5	32.8 (≈ 99.9 µM)	46.4	7.7	23.2	6.0	1	2 to 4 (≈ 6.09 to 12.2 µM)	2.0 (≈ 6.09 µM)				
CCC(=O)Oc1cc2c(cc1OC(=O)CC)[C@@H](OC(=O)CC)[C@@H]1[C@@]3(C)CCCC(C)(C)[C@@H]3CC[C@]1(C)O2 [Compound 21]	2.8	1.0 µg/mL and 1 µg/mL	64.2	64.2	22.9		26.4	9.4	26.4	2.8				12.9 (≈ 25.1 µM)	12.85 (≈ 25 µM)		
CO[C@@H]1c2cc(OC(=O)C(C)C)c(OC(=O)C(C)C)cc2O[C@@]2(C)CC[C@H]3C(C)(C)CCC[C@]3(C)[C@@H]12 [Compound 17]	8.6	10.1 µg/mL				25 (≈ 49.9 µM)				0.9							
CC1(C)CCCC2(C)C1CCC(C)(O)C2Cc1ccc(OCc2ccccc2)cc1 (stereo not drawn) [Compound 33]	57.5	40.4 µg/mL								1.4						40.6 (≈ 99.8 µM)	
CCC(=O)Oc1cc2c(cc1OC(=O)CC)[C@@H](OC)[C@@H]1[C@@]3(C)CCCC(C)(C)[C@@H]3CC[C@]1(C)O2 [Compound 16]	8.9	1.7 µg/mL	> 200	> 117.6	> 22.5	23.6 (≈ 49.9 µM)	35.7	6.8	60.6	5.2							
CC(C)C(=O)Oc1cc2c(cc1OC(=O)C(C)C)[C@@H](OC(=O)C(C)C)[C@@H]1[C@@]3(C)CCCC(C)(C)[C@@H]3CC[C@]1(C)O2 [Compound 22]	7.6	88.8 µg/mL								0.08							
CN[C@H](CC(C)C)C(=O)N[C@H]1C(=O)N[C@@H](CC(N)=O)C(=O)N[C@H]2C(=O)N[C@H]3C(=O)N[C@H](C(=O)N[C@H](C(=O)O)c4cc(O)cc(O)c4-c4cc3ccc4O)[C@H](O)c3ccc(c(Cl)c3)Oc3cc2cc(c3O[C@@H]2O[C@H](CO)[C@@H](O)[C@H](O)[C@H]2O[C@H]2C[C@](C)(N)[C@H](O)[C@H](C)O2)Oc2ccc(cc2Cl)[C@H]1O [vancomycin, reference compound]																	reduced toxin production in a concentration-dependent manner
